Results: article PMC12518634, “The noncanonical function of liver-type phosphofructokinase potentiates the efficacy of HDAC inhibitors in cancer” (Signal Transduction and Targeted Therapy, 2025)
pEC50: −log10 of the molar value. Structures can show the parent of a compound that is named as a salt. Where two headings read alike, the source gives them in different places.

Key:
1405R3 = test: High-throughput drug screen, CellTiter-Glo viability, 72 h; format: cell-based, human; set-up: AUC: scale not given here; settings: 1405R3 DSRT analysis; for AUC: area under the dose-response curve; for MIN: lower asymptote of fitted dose-response curve; for SLOPE: slope of fitted dose-response curve; for pEC50: 72 h, fitted dose-response curve, Min.Conc.tested 1, Max.Conc.tested 10000, read-out: EC50
In short: (§1)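 Cholangiocarcinoma cells were seeded at 3000/well in 384-well plates and dosed after 24 h. Drugs were tested at 10, 1, 0.1, 0.01 and 0.001 μM in duplicate for 72 h, with viability read by CellTiter-Glo luminescence.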

783C-6 = test: as above; format: cell-based, human; set-up: AUC: scale not given here; settings: for AUC: area under the dose-response curve; for pEC50: 72 h, read-out: EC50
In short: as §1

[1] = 783C-6 cells, DSS of DSRT analysis
[2] = 783C-6 cells, minimum of dose-response curve
[3] = 783C-6 cells, slope of fitted dose-response curve
[4] = 783C-6 DSRT analysis, DSS calculated from the dose-response curve
[5] = 783C-6 DSRT analysis, MIN of the fitted dose-response curve
[6] = 783C-6 DSRT analysis, slope of the fitted dose-response curve
[7] = Homo sapiens, CellTiter-Glo viability, GI50

Row | Compound | AUC (1405R3) | DSS (1405R3; drug sensitivity score) | MIN (1405R3) | SLOPE (1405R3) | DSS (783C-6; [1]) | AUC (783C-6; 783C-6 cells) | MIN (783C-6; [2]) | SLOPE (783C-6; [3]) | pEC50 (1405R3; CellTiter-Glo viability, GI50) | pEC50 (783C-6; 783C-6 cells, DSRT analysis, CellTiter-Glo viability, concentrations tested 1 to 10000 (unit inferred), GI50) | DSS (1405R3; DSS) | DSS (783C-6; [4]) | MIN (783C-6; [5]) | AUC (783C-6; 783C-6 DSRT analysis) | SLOPE (783C-6; [6]) | pEC50 (1405R3; Homo sapiens, CellTiter-Glo) | pEC50 (783C-6; Homo sapiens) | pEC50 (1405R3; [7]) | pEC50 (1405R3; CellTiter-Glo) | pEC50 (783C-6; 783C-6 DSRT analysis, CellTiter-Glo viability, fitted dose-response curve, Min.Conc.tested 1, Max.Conc.tested 10000)
1 | CCCC(=O)[O-].[Na+] [Sodium butyrate] | 0.1 | 0 | 100 | -0.1 | 0 | 0.1 | 100 | -0.1 | – | – | – | – | – | – | – | – | – | – | – | –
2 | C/C(=N\NC(=O)c1cccc(S(=O)(=O)N2CCOCC2)c1)c1cc(Cl)ccc1O [SP2509] | 31.9 | 3.1 | 61 | -1.6 | 4.9 | 43.2 | 35 | -2.5 | 5.80 | 5.66 | – | – | – | – | – | – | – | – | – | –
3 | COc1cc2nccc(Oc3ccc(NC(=O)NC4CC4)c(Cl)c3)c2cc1C(N)=O [Lenvatinib] | 0.1 | – | 99.3 | – | – | – | – | – | – | – | 0 | 0 | 93.6 | 8.6 | – | – | – | – | – | –
4 | O=C(O)CCCc1ccccc1 [Benzenebutyric acid] | 2.3 | – | 94.7 | -0.7 | – | – | – | – | – | – | 0 | 0 | 96.8 | 1.4 | -0.7 | – | – | – | – | –
5 | O=C(/C=C/c1ccc(CN(CCO)CCc2c[nH]c3ccccc23)cc1)NO [Dacinostat] | 132.5 | – | 1.4 | – | – | – | – | – | – | – | 15.8 | 11.6 | 2.5 | 99 | – | 6.34 | 6.02 | – | – | –
6 | O=C(NC[C@H](O)CN1CCc2ccccc2C1)c1cc(NC2COC2)ncn1 [EPZ015666] | 15.4 | – | 90.1 | – | – | – | – | – | – | – | 0 | 0 | 85 | 4.5 | – | – | – | – | – | –
7 | Cc1cc(-c2ccccc2)cc(C(=O)NNS(=O)(=O)c2ccccc2)c1F [WM-8014] | 16.3 | 0 | 89.5 | -0.1 | 0 | 5.5 | 81.8 | -1 | – | – | – | – | – | – | – | – | – | – | – | –
8 | CNC(=O)c1cc(Oc2ccc(NC(=O)Nc3ccc(Cl)c(C(F)(F)F)c3)cc2)ccn1 [Sorafenib Tosylate] | 36.2 | 3.8 | 14 | – | 3.4 | 31.4 | – | – | – | – | – | – | – | – | – | – | 5.66 | 5.40 | – | –
9 | CC(=O)Nc1ccc(C(=O)Nc2ccccc2N)cc1 [Tacedinaline] | 9.7 | 0.6 | 76.8 | – | 0.3 | 7.5 | 82.2 | – | – | – | – | – | – | – | – | – | – | – | – | –
10 | O=C1[C@H](Cc2ccc(O)cc2)N2C(=O)CCN(C(=O)NCc3ccccc3)[C@H]2CN1Cc1cccc2ccccc12 [ICG-001] | 0.1 | – | 100 | -0.1 | – | – | – | – | – | – | 0 | 0 | 90.7 | 16.9 | -2.5 | – | – | – | – | –
11 | Cc1nn2c([nH]c(=O)c3cccnc32)c1C#N [KDM4D-IN-1] | 9.3 | – | 94 | -0.1 | – | – | – | – | – | – | 0 | 0 | 93.6 | 0.8 | -2.5 | – | – | – | – | –
12 | CCS(=O)(=O)N1CCC([C@@H](C)n2c(C)c(C(=O)NCc3c(OC)cc(C)[nH]c3=O)c3ccccc32)CC1 [CPI-169] | 0.1 | – | 100 | – | – | – | – | – | – | – | 0 | 0 | 97.5 | 1 | – | – | – | – | – | –
13 | COc1cc(Nc2ncc3c(n2)-c2ccc(Cl)cc2C(c2c(F)cccc2OC)=NC3)ccc1C(=O)O [Alisertib] | 15.4 | – | 89 | – | – | – | – | – | – | – | 0.1 | 3.7 | 73.6 | 52.1 | – | – | 6.97 | – | – | –
14 | COc1ccc(Cn2ccc3ccc(C(=O)NO)cc32)cc1 [PCI-34051] | 0.1 | 0 | 100 | -0.1 | 0 | 2 | 95.4 | -0.7 | – | – | – | – | – | – | – | – | – | – | – | –
15 | CCCCCCCCCCCCCC(=S)NCCCC[C@H](NC(=O)OCc1ccccc1)C(=O)Nc1ccccc1 [Thiomyristoyl] | 18.7 | 0 | 87.9 | -0.1 | 0 | 2.1 | 92.9 | -1 | – | – | – | – | – | – | – | – | – | – | – | –
16 | COc1cc2ncnc(Nc3ccc(F)c(Cl)c3)c2cc1OCCCN1CCOCC1 [Gefitinib] | 33.5 | – | 70.6 | – | – | – | – | – | – | – | 3.6 | 2.5 | 77.5 | 27 | – | – | – | – | – | –
17 | O=C(NO)c1cnc(NC2(c3cccc(F)c3)CCCCC2)nc1 [ACY-775] | 0.4 | – | 98.9 | -0.9 | – | – | – | – | – | – | 0 | 0 | 97.3 | 2.4 | -0.3 | – | – | – | – | –
18 | O=C(CCCCCCC(=O)Nc1ccc([C@H]2O[C@@H](CSc3nc(-c4ccccc4)c(-c4ccccc4)o3)C[C@@H](c3ccc(CO)cc3)O2)cc1)NO [Tubacin] | 41.9 | 0 | 73.1 | – | 0 | 7.2 | 76.2 | – | – | – | – | – | – | – | – | – | – | – | – | –
19 | CC(=O)O[C@H]1C(=O)[C@@]2(C)[C@H]([C@H](OC(=O)c3ccccc3)[C@]3(O)C[C@H](OC(=O)[C@H](O)[C@@H](NC(=O)c4ccccc4)c4ccccc4)C(C)=C1C3(C)C)[C@]1(OC(C)=O)CO[C@@H]1C[C@@H]2O [Paclitaxel] | 129.3 | 14.6 | 37.8 | – | 21.1 | 167.6 | 52.1 | – | – | – | – | – | – | – | – | – | 8.72 | 7.09 | – | –
20 | CCN(c1cc(-c2ccc(CN3CCOCC3)cc2)cc(C(=O)NCc2c(C)cc(C)[nH]c2=O)c1C)C1CCOCC1 [Tazemetostat] | 12.2 | 0 | 92.1 | – | 0 | 14.4 | 90.7 | – | – | – | – | – | – | – | – | – | – | – | – | –
21 | AR-42 | 98.5 | – | 1.2 | -1.5 | – | – | – | – | – | – | 11 | 10.5 | 2.3 | 96.3 | -1.3 | – | – | – | 5.99 | 5.96
22 | NKL 22 | 6.3 | 0.2 | 83.7 | -2.5 | 0 | 3.5 | 92.5 | -2.5 | – | – | – | – | – | – | – | – | – | – | – | –
